Assay results from patent US20240208997A1, “CYCLIC BENZIMIDAZOLE DERIVATIVES AS CGAS INHIBITORS” (Boehringer Ingelheim International GmbH, priority 2022, published 2024).

What was measured:
[1] = system: IFN induction in cGAMP-stimulated THP1 cells; assay: cGAMP stimulated counter cell assay in THP1-Dual cells (THP1(cGAMP) IC50); type: cell-based, human; conditions: Table 1; for IC50: Homo sapiens, THP-1, counter assay, 10 μM cGAMP stimulation, read-out: THP(cGAMP) IC50; for Ratio THP(cGAMP) IC50/THP(vir) IC50: selectivity for cGAS-inhibition
From the text: 6.2 Method: Human cGAS Cell Assay and cGAMP Stimulated Counter Cell Assay (THP1(vir) IC50 and THP1(cGAMP) IC50)
For the counter assay, cells were stimulated by cGAMP (SigmaAldrich #SML1232) to activate the identical pathway independent and directly downstream of cGAS (measurement of THP1(cGAMP) IC50).
Pathway activity was monitored by measuring the Lucia luciferase activity induced by either DNA stimulated cGAS enzyme activity (measurement of THP1(vir) IC50) or by cGAMP directly (measurement of THP1(cGAMP) IC50, counter assay).
(§1) Compounds were delivered in 10 mM DMSO solution, serially diluted and transferred to the 384 well assay plate (Greiner #781201) using an Echo acoustic dispenser. Typically, 8 concentrations were used with the highest concentration at 10 μM in the final assay volume followed by ^˜1:5 dilution steps. DMSO concentration was set to 1% in the final assay volume. The 384 well assay plate contained 21 test compounds (column 1-22), and DMSO in column 23 and 24.
Cells, cultivated according to manufacturer conditions, were harvested by centrifugation at 300 g/10 min and were then resuspended and diluted to 1.66E5 cells/ml in fresh cell culture medium (RPMI 1640 (Gibco #A10491-01), 10% FCS (Gibco #10500), 1× GlutaMax (Gibco #35050-061), 1× Pen/Strep solution (Gibco #15140-122), 100 μg/ml Normocin (InvivoGen #ant-nr), 100 μg/ml Zeocin (InvivoGen #ant-zn), 10 μg/ml Blasticidin S (Life Technologies #A11139-03)). The baculovirus solution was then added 1:200 (have varied according to virus batch) to the cells (measurement of THP1(vir) IC50).
30 μL of the cell/virus-mix were added to each well of the compound plate from column 1-23 via MultiDrop Combi dispenser (5000 cells/well). In column 24, 30 μl/5000 cells/well without virus were added as a low control.
The plates were then incubated for 18 h at 37° C. in a humidified incubator.
Following that, 15 μL of QuantiLuc detection reagent (InvivoGen #rep-qlcg5) were added to each well using a MultiDrop Combi. Measurement was done immediately after the addition using an EnVision reader (US-luminescence read-mode).
(§2) Data Evaluation and Calculation:
(§3) For data evaluation and calculation, the measurement of the low control was set as 0% control and the measurement of the high control was set as 100% control. The IC50 values were calculated using the standard 4 parameter logistic regression formula. Calculation: [y=(a−d)/(1+(x/c)^b)+d], a=low value, d=high value; x=conc M; c=IC50 M; b=slope

[2] = target: cGAS (Homo sapiens, UniProt Q8N884); assay: Human cGAS enzyme assay (hcGAS IC50, in vitro), cGAMP formation by RapidFire MS; type: biochemical; design: HumancGAS (amino acid 1-522) with an N-terminal 6×-His-tag and SUMO-tag; 6xHis (N); SUMO (N); made in house; host or cells: E. coli BL21(DE3) pLysS; conditions: Table 1; 45 bp dsDNA-activated enzyme
Description: 6.1 Method: Human cGAS Enzyme Assay (hcGAS IC50 (In Vitro))
Human cGAS enzyme was incubated in the presence of a 45 base pair double stranded DNA to activate the enzyme and GTP and ATP as substrates. Compound activity was determined by measuring the effect of compounds on the formation of the product of the enzyme reaction, cGAMP, which is measured by a mass spectrometry method.
HumancGAS (amino acid 1-522) with an N-terminal 6×-His-tag and SUMO-tag was expressed in E. coli BL21(DE3) pLysS (Novagen) cells for 16 h at 18° C. Cells were lysed in buffer containing 25 mM Tris (pH 8), 300 mM NaCl, 10 mM imidazole, 10% glycerol, protease inhibitor cocktail (cOmplete™, EDTA-free, Roche) and DNase (5 μg/mL). […] Purified protein was concentrated to 1.7 mg/mL and stored at −80° C.
as §1, with “22” for “21”
After the compound transfer, 15 μL of the enzyme-DNA-working solution (12 nM cGAS, 0.32 μM 45base pair DNA in assay buffer, 10 mM Tris pH 7.5/10 mM KCl/5 mM MgCl2/1 mM DTT) were added to each well from column 1-23 via a MultiDrop Combi dispenser. In column 24, 15 μl of assay buffer without enzyme/DNA were added as a low control.
The plates were then pre-incubated for 60 min at room temperature.
Following that, 10 μL of GTP (ThermoFisher #R0461)-ATP (Promega #V915B) mix in assay buffer were added to the assay plate (columns 1-24, 30 μM final concentration each) using a Multidrop Combi.
The plates were incubated again for 90 min at room temperature.
Following the incubation, the reaction was stopped by 80 μL of 0,1% formic acid in assay buffer containing 5 nM cyclic-di-GMP (Sigma #SML1228) used as internal standard for the mass spectrometry. The total volume/well was 105 μL.
The plates were centrifuged at 4000 rpm, 4° C., for 5 min.
The RapidFire autosampler was coupled to a binary pump (Agilent 1290) and a Triple Quad 6500 (ABSciex, Toronto, Canada). […] Aspiration time: 250 ms; Load time: 3000 ms; Elute time: 3000 ms; Wash volume: 500 μL.
The MS was operated in positive ion mode with HESI ion source, with a source temperature of 550 C, curtain gas=35, gas 1=65, and gas 2=80. Unit mass resolution in SRM mode. The following transitions and MS parameters (DP: declustering potential and CE: collision energy) for cGAMP and DicGMP were determined:
Internal standard: cyclic-di-GMP at 690.1/540, DP=130, CE=30.
The formation of cGAMP was monitored and evaluated as ratio to cyclic-di-GMP.
as §2
as §3, with “c=1C50” for “c=IC50”

Chain of cGAS (Q8N884 whole entry): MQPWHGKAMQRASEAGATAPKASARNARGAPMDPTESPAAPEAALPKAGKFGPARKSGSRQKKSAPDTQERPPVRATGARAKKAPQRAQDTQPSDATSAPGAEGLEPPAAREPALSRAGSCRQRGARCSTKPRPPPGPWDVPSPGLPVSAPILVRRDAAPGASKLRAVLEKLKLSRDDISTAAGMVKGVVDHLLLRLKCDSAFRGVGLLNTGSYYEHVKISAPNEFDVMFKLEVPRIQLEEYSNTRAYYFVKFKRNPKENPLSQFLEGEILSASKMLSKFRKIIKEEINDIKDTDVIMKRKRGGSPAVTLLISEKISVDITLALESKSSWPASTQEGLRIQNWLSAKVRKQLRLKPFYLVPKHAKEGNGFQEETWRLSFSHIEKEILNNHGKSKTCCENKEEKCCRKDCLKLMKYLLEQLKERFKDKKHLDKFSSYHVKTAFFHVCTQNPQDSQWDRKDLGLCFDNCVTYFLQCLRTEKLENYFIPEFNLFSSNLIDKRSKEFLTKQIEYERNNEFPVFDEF

SMILES	IC50 [1] [nM]	Ratio THP(cGAMP) IC50/THP(vir) IC50 [1]	IC50 [2] [nM]
C[C@@H]1CN2CC[C@H]1n1c(nc3ccccc31)O[C@H]1C[C@@H](C(=O)O)N(C1)c1nc(nc3c1oc1ccccc13)CCCCCOC2=O [Example 10.01]	8200	45	54
C[C@H]1CN2CC[C@@H]1n1c(nc3cccc(Cl)c31)O[C@H]1C[C@@H](C(=O)O)N(C1)c1nc(nc3c1oc1ccccc13)CC(=O)NCCCC2=O (racemic) [Example 2.01, (12S,14S)-4-chloro-37-methyl-29,34-dioxo-11,18-dioxa-2,9,15,26,30,35,40-heptaazaoctacyclo[33.2.2.1^12,15.1^16,27.0^2,10.0^3,8.0^17,25.0^19,24]hentetraconta-3,5,7,9,16(40),17(25),19(24),20,22,26-decaene-14-carboxylic acid]	> 10000	>948	6
C[C@@H]1CCCCC(=O)N2CCC(CC2)n2c(nc3ccccc32)O[C@H]2C[C@@H](C(=O)O)N(C2)c2nc1nc1c2oc2ccccc21 [Example 1.26]	15000	2687	3.4
C[C@H]1CCCCC(=O)N2CCC(CC2)n2c(nc3ccccc32)O[C@H]2C[C@@H](C(=O)O)N(C2)c2nc1nc1c2oc2ccccc21 [Example 1.25]	> 10000	>1251	5.5
O=C(O)[C@@H]1C[C@H]2CN1c1nc(nc3c1oc1ccccc13)COCCCC(F)(F)C(=O)N1CCC(CC1)n1c(nc3ccccc31)O2 [Example 8.01]	> 10000	255	5.6
C[C@H]1CN2CC[C@@H]1n1c(nc3ccc(Cl)cc31)O[C@H]1C[C@@H](C(=O)O)N(C1)c1nc(nc3c1oc1ccccc13)COCCCCC2=O [Example 1.10]	> 10000	>790	5
O=C(O)[C@@H]1C[C@H]2CN1c1nc(nc3c1oc1ccccc13)CCOCCCC(=O)N1CCC(CC1)n1c(nc3cc(F)ccc31)O2 [Example 1.03]	> 10000	>90	5.6
C[C@H]1CN2CC[C@@H]1n1c(nc3ccccc31)O[C@H]1C[C@@H](C(=O)O)N(C1)c1nc(nc3c1oc1ccccc13)C(F)(F)COCCCC2=O [Example 4.01]	> 10000	>14442	1.7
Cc1cccc2c1nc1n2[C@H]2CCN(C[C@@H]2C)C(=O)CCCCCC(F)(F)c2nc(c3oc4ccccc4c3n2)N2C[C@H](C[C@H]2C(=O)O)O1 [Example 1.28]	4000	267	11
C[C@H]1CN2CC[C@@H]1n1c(nc3cc(Cl)ccc31)O[C@H]1C[C@@H](C(=O)O)N(C1)c1nc(nc3c1oc1cc(F)ccc13)CCCCOCC2=O [Example 1.09]	> 10000	4305	3.9
C[C@H]1CN2CC[C@@H]1n1c(nc3cc(Cl)ccc31)O[C@H]1C[C@@H](C(=O)O)N(C1)c1nc(nc3c1oc1ccccc13)COCCOCC2=O [Example 1.11]	≥ 10000	>2907	1.9
C[C@H]1CN2CC[C@@H]1n1c(nc3ccc(Cl)cc31)O[C@H]1C[C@@H](C(=O)O)N(C1)c1nc(nc3c1oc1ccccc13)C(F)(F)CCCCCC2=O [Example 1.13]	11000	2251	6.1
C[C@H]1CN2CC[C@@H]1n1c(nc3ccccc31)O[C@H]1C[C@@H](C(=O)O)N(C1)c1nc(nc3c1oc1ccccc13)CCCCCCC2=O (racemic) [Example 1.24]	11000	65	18
Cc1cccc2c1nc1n2[C@@H]2CCN(C[C@H]2C)C(=O)CCCCCC(F)(F)c2nc(c3oc4ccccc4c3n2)N2C[C@H](C[C@H]2C(=O)O)O1 [Example 1.27]	6000	33	100
